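A five-concentration, 48-hour dose response in 96-well plates underlies each endpoint, interpolated linearly between surrounding concentrations. At the GI50, growth is halved.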 Activity calls are given as the source filed them. Cut-off read from the data, not from the text of the source: active = GI50 up to about 1.1 µM and inactive = higher.
Assays:
Experiment in all cases: growth of human tumour cells (NCI), 48 h
[1] = tested on: M14
[2] = tested on: SF-295
[3] = tested on: OVCAR-8
[4] = tested on: RPMI-8226
[5] = tested on: SW-620
[6] = tested on: SNB-75
[7] = tested on: UACC-62
[8] = tested on: NCI-H460
[9] = tested on: SK-MEL-28
[10] = tested on: NCI-H23
[11] = tested on: HCT-116
[12] = tested on: SNB-78
[13] = tested on: M19-MEL
[14] = tested on: 786-0
[15] = tested on: OVCAR-4
[16] = tested on: A549
[17] = tested on: NCI-H522
[18] = tested on: SF-539
[19] = tested on: SR
[20] = tested on: LOX IMVI
[21] = tested on: RXF 631
[22] = tested on: NCI-H226
[23] = tested on: U-251
[24] = tested on: HOP-62
[25] = tested on: HOP-18
[26] = tested on: SNB-19
[27] = tested on: KM-20L2
[28] = tested on: LXFL 529
[29] = tested on: A498
[30] = tested on: XF498
[31] = tested on: HT-29
[32] = tested on: Malme-3M
[33] = tested on: CAKI-1
[34] = tested on: ACHN
[35] = tested on: DMS-114
[36] = tested on: HCC 2998
[37] = tested on: SK-MEL-2
[38] = tested on: KM12
[39] = tested on: IGROV-1
[40] = tested on: DLD-1
[41] = tested on: CCRF-CEM
[42] = tested on: SK-OV-3
[43] = tested on: UO-31
[44] = tested on: HOP-92
[45] = tested on: SK-MEL-5
[46] = tested on: OVCAR-3
[47] = tested on: COLO 205
[48] = tested on: HL-60
[49] = tested on: SN12C
[50] = tested on: UACC-257
[51] = tested on: MOLT-4
[52] = tested on: EKVX
[53] = tested on: OVCAR-5
[54] = tested on: K562
[55] = tested on: HCT-15
[56] = tested on: SF-268
[57] = tested on: DMS-273
[58] = tested on: NCI/ADR-RES
[59] = tested on: T47D
[60] = tested on: DU-145
[61] = tested on: RXF 393
[62] = tested on: MDA-MB-231
[63] = tested on: Hs-578T
[64] = tested on: MDA-N
[65] = tested on: TK-10
[66] = tested on: MDA-MB-435
[67] = tested on: MCF7
[68] = tested on: PC-3
[69] = tested on: BT-549

N/N=C1\C(=O)N(C2CCCCC2)C(=O)C1C(=O)NC1CCCCC1 (stereo not drawn)
GI50 [1]: > 100 µM (inactive)
GI50 [2]: > 100 µM (inactive)
GI50 [3]: > 100 µM (inactive)
GI50 [4]: > 100 µM (inactive)
GI50 [5]: > 100 µM (inactive)
GI50 [6]: 56.4 µM (inactive)
GI50 [7]: > 100 µM (inactive)
GI50 [8]: > 100 µM (inactive)
GI50 [9]: 81.8 µM (inactive)
GI50 [10]: > 100 µM (inactive)
GI50 [11]: > 100 µM (inactive)
GI50 [12]: 43.1 µM (inactive)
GI50 [13]: > 100 µM (inactive)
GI50 [14]: > 100 µM (inactive)
GI50 [15]: > 100 µM (inactive)
GI50 [16]: > 100 µM (inactive)
GI50 [17]: > 100 µM (inactive)
GI50 [18]: > 100 µM (inactive)
GI50 [19]: > 100 µM (inactive)
GI50 [20]: > 100 µM (inactive)
GI50 [21]: > 100 µM (inactive)
GI50 [22]: > 100 µM (inactive)
GI50 [23]: > 100 µM (inactive)
GI50 [24]: > 100 µM (inactive)
GI50 [25]: > 100 µM (inactive)
GI50 [26]: > 100 µM (inactive)
GI50 [27]: 20.7 µM (inactive)
GI50 [28]: > 100 µM (inactive)
GI50 [29]: > 100 µM (inactive)
GI50 [30]: > 100 µM (inactive)
GI50 [31]: > 100 µM (inactive)
GI50 [32]: > 100 µM (inactive)
GI50 [33]: > 100 µM (inactive)
GI50 [34]: > 100 µM (inactive)
GI50 [35]: > 100 µM (inactive)
GI50 [36]: > 100 µM (inactive)
GI50 [37]: 28.9 µM (inactive)
GI50 [38]: > 100 µM (inactive)
GI50 [39]: > 100 µM (inactive)
GI50 [40]: > 100 µM (inactive)
GI50 [41]: > 100 µM (inactive)
GI50 [42]: 47.5 µM (inactive)
GI50 [43]: > 100 µM (inactive)
GI50 [44]: > 100 µM (inactive)
GI50 [45]: 33.7 µM (inactive)
GI50 [46]: 21 µM (inactive)
GI50 [47]: > 100 µM (inactive)
GI50 [48]: 26.2 µM (inactive)
GI50 [49]: 31.6 µM (inactive)
GI50 [50]: 87.9 µM (inactive)
GI50 [51]: > 100 µM (inactive)
GI50 [52]: > 100 µM (inactive)
GI50 [53]: > 100 µM (inactive)
GI50 [54]: > 100 µM (inactive)
GI50 [55]: > 100 µM
GI50 [56]: > 100 µM (inactive)

CCCCCCCCCCCCCCCCCCN(C)C(COC)COP(=O)([O-])OCC[N+](C)(C)C (stereo not drawn)
GI50 [1]: 3.46 µM (inactive)
GI50 [2]: 2.56 µM (inactive)
GI50 [3]: 11.8 µM (inactive)
GI50 [4]: 1.83 µM (inactive)
GI50 [5]: 6.47 µM (inactive)
GI50 [6]: 2.97 µM (inactive)
GI50 [7]: 5.16 µM (inactive)
GI50 [8]: 1.78 µM (inactive)
GI50 [57]: 1.38 µM (inactive)
GI50 [58]: 24.5 µM (inactive)
GI50 [59]: 18.4 µM (inactive)
GI50 [9]: 18.5 µM (inactive)
GI50 [10]: 8.45 µM (inactive)
GI50 [11]: 4.68 µM (inactive)
GI50 [12]: 4.5 µM (inactive)
GI50 [13]: 3.25 µM (inactive)
GI50 [60]: 10.1 µM (inactive)
GI50 [14]: 1.74 µM (inactive)
GI50 [15]: 3.69 µM (inactive)
GI50 [61]: 1.57 µM (inactive)
GI50 [16]: 6.68 µM (inactive)
GI50 [17]: 2.69 µM (inactive)
GI50 [18]: 7.01 µM (inactive)
GI50 [62]: 5.73 µM (inactive)
GI50 [19]: 2.23 µM (inactive)
GI50 [20]: 4.49 µM (inactive)
GI50 [21]: 6.85 µM (inactive)
GI50 [22]: 3.58 µM (inactive)
GI50 [23]: 1.97 µM (inactive)
GI50 [24]: 3.09 µM (inactive)
GI50 [25]: 6.08 µM (inactive)
GI50 [26]: 3.61 µM (inactive)
GI50 [27]: 2.08 µM (inactive)
GI50 [28]: 4.26 µM (inactive)
GI50 [63]: 3.19 µM (inactive)
GI50 [29]: 7.38 µM (inactive)
GI50 [30]: 18.6 µM (inactive)
GI50 [31]: 2.94 µM (inactive)
GI50 [64]: 15.6 µM (inactive)
GI50 [32]: 14.9 µM (inactive)
GI50 [33]: 3.69 µM (inactive)
GI50 [34]: 11.9 µM (inactive)
GI50 [65]: 1.84 µM (inactive)
GI50 [36]: 1.66 µM (inactive)
GI50 [37]: 18.7 µM (inactive)
GI50 [38]: 1.66 µM (inactive)
GI50 [39]: 1.3 µM (inactive)
GI50 [40]: 3.48 µM (inactive)
GI50 [41]: 2.18 µM (inactive)
GI50 [42]: 11.2 µM (inactive)
GI50 [66]: 15.6 µM (inactive)
GI50 [43]: 16 µM (inactive)
GI50 [44]: 1.89 µM (inactive)
GI50 [45]: 12.9 µM (inactive)
GI50 [67]: 10.1 µM (inactive)
GI50 [46]: 7.24 µM (inactive)
GI50 [68]: 1.53 µM (inactive)
GI50 [47]: 1.58 µM (inactive)
GI50 [48]: 1.48 µM (inactive)
GI50 [49]: 4.23 µM (inactive)
GI50 [50]: 14.6 µM (inactive)
GI50 [51]: 1.82 µM (inactive)
GI50 [52]: 17.5 µM (inactive)
GI50 [53]: 2.34 µM (inactive)
GI50 [54]: 11.8 µM (inactive)
GI50 [69]: 9.18 µM (inactive)
GI50 [56]: 3.24 µM (inactive)

CCc1cccc(C(C)C)c1NC(=O)C(=O)C(C(=O)C(=O)OC)c1nc2ccccc2nc1O (stereo not drawn)
GI50 [1]: > 100 µM (inactive)
GI50 [2]: > 100 µM (inactive)
GI50 [3]: > 100 µM (inactive)
GI50 [4]: > 100 µM (inactive)
GI50 [5]: > 100 µM (inactive)
GI50 [6]: > 100 µM (inactive)
GI50 [7]: > 100 µM (inactive)
GI50 [8]: > 100 µM (inactive)
GI50 [57]: > 100 µM (inactive)
GI50 [9]: > 100 µM (inactive)
GI50 [10]: > 100 µM (inactive)
GI50 [11]: > 100 µM (inactive)
GI50 [12]: > 100 µM (inactive)
GI50 [13]: > 100 µM (inactive)
GI50 [14]: > 100 µM (inactive)
GI50 [15]: > 100 µM (inactive)
GI50 [61]: > 100 µM (inactive)
GI50 [16]: > 100 µM (inactive)
GI50 [17]: > 100 µM (inactive)
GI50 [19]: > 100 µM (inactive)
GI50 [20]: > 100 µM (inactive)
GI50 [21]: > 100 µM (inactive)
GI50 [22]: > 100 µM (inactive)
GI50 [23]: > 100 µM (inactive)
GI50 [25]: > 100 µM (inactive)
GI50 [26]: > 100 µM (inactive)
GI50 [27]: > 100 µM (inactive)
GI50 [28]: > 100 µM (inactive)
GI50 [29]: > 100 µM (inactive)
GI50 [30]: > 100 µM (inactive)
GI50 [31]: > 100 µM (inactive)
GI50 [32]: > 100 µM (inactive)
GI50 [33]: > 100 µM (inactive)
GI50 [34]: > 100 µM (inactive)
GI50 [65]: > 100 µM (inactive)
GI50 [35]: > 100 µM (inactive)
GI50 [36]: > 100 µM (inactive)
GI50 [37]: > 100 µM (inactive)
GI50 [38]: > 100 µM (inactive)
GI50 [39]: > 100 µM (inactive)
GI50 [41]: > 100 µM (inactive)
GI50 [42]: > 100 µM (inactive)
GI50 [43]: > 100 µM (inactive)
GI50 [44]: > 100 µM (inactive)
GI50 [45]: > 100 µM (inactive)
GI50 [47]: > 100 µM (inactive)
GI50 [48]: > 100 µM (inactive)
GI50 [49]: > 100 µM (inactive)
GI50 [50]: > 100 µM (inactive)
GI50 [51]: > 100 µM (inactive)
GI50 [52]: 44.7 µM (inactive)
GI50 [53]: > 100 µM (inactive)
GI50 [54]: > 100 µM (inactive)
GI50 [55]: > 100 µM
GI50 [56]: > 100 µM (inactive)

From ChEMBL document CHEMBL1201862, “PubChem BioAssay data set” (2004)
